Data: ChEMBL document CHEMBL2074375, “Comparison between isopropyl unoprostone and latanoprost by prostaglandin E(2)induction, affinity to prostaglandin transporter, and intraocular metabolism” (Exp Eye Res, 2002)

Molecular target: Solute carrier organic anion transporter family member 2A1 (Homo sapiens, UniProt Q92959)
Experiment: TP_TRANSPORTER: inhibition of PGE1 uptake (PGE1: 0.0004 uM) in PGT-expressing HeLa cells
Assay type: functional, cell-based

Ki [nM] | Compound
149 | O=C(O)CCC/C=C\C[C@@H]1[C@@H](CC[C@@H](O)CCc2ccccc2)[C@H](O)C[C@@H]1O [LATANOPROST ACID]
> 10000 | CC(C)OC(=O)CCC/C=C\C[C@@H]1[C@@H](CC[C@@H](O)CCc2ccccc2)[C@H](O)C[C@@H]1O [LATANOPROST]
